From patent publication US8022091B2, “Triazole derivative” (Taisho Pharmaceutical Co., Ltd., priority 2006, dated 2011)

Target: T1, human Edg-1 (S1P1) (Homo sapiens, UniProt P21453)
T1 construct: expressed in transfected cells; host or cells: HEK-293
Assay: S1P1 binding assay: inhibition of [33P]-S1P binding to membrane fraction of HEK-293 cells transferred with the human Edg-1 (S1P1) gene
Conditions: test compound 10 μM; inhibition of [33P]-S1P binding, membrane fraction
How it was run: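 With 0.1 nM [33P]-S1P and compound (10^−5M single point, or a concentration range for IC50) in 0.1% DMSO, membrane fractions from human Edg-1-expressing HEK-293 cells were treated for one hour at 30° C in 20 mM Tris-HCl pH 7.4 with NaF, deoxypyridoxine and BSA. Bound label was measured after filtration, with untransfected-cell background subtracted.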

T1 sequence (P21453 whole entry): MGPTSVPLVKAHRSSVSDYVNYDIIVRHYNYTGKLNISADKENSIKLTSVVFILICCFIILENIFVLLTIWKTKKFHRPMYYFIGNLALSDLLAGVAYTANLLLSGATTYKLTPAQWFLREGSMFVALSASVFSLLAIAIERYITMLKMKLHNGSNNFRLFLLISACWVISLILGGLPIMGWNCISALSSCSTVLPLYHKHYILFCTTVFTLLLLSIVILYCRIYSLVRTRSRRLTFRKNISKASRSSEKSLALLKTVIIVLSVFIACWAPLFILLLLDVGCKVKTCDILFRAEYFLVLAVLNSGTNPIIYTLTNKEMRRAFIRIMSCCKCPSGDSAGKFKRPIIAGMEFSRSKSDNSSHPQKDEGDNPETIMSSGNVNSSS

Compound	inhibition at 10 µM [%]
CCn1c(Oc2cccc(N3CCN(C)CC3)c2)nnc1[C@@H](C)NS(=O)(=O)c1ccc(C(C)(C)C)cc1 [Compound 500]	90.2
CCCCOc1ccc(S(=O)(=O)N[C@H](C)c2nnc(Oc3cccc(N4CCN(C)CC4)c3)n2CC)cc1 [Compound 502]	75.5
CCn1c(Oc2cccc(N3CCN(C)CC3)c2)nnc1[C@@H](C)NS(=O)(=O)c1ccc(Br)cc1OC(F)(F)F [Compound 504]	53.5
CCn1c(Oc2cccc(N3CCN(C)CC3)c2)nnc1[C@@H](C)NS(=O)(=O)c1ccc(Cl)cc1 [Compound 505]	108
CCn1c(Oc2cccc(N3CCN(C)CC3)c2)nnc1[C@@H](C)NS(=O)(=O)c1ccc(Cl)c2nonc12 [Compound 507]	84.8
CCn1c(Oc2cccc(N3CCN(C)CC3)c2)nnc1[C@@H](C)NS(=O)(=O)c1sc2ccc(Cl)cc2c1C [Compound 509]	87
CCn1c(Oc2cccc(N3CCN(C)CC3)c2)nnc1[C@@H](C)NS(=O)(=O)c1cc(C)c(Cl)cc1C [Compound 510]	114
CCn1c(Oc2cccc(N3CCN(C)CC3)c2)nnc1[C@@H](C)NS(=O)(=O)c1c(Cl)cccc1Cl [Compound 512]	60.7
CCn1c(Oc2cccc(N3CCN(C)CC3)c2)nnc1[C@@H](C)NS(=O)(=O)c1ccc(OC)c(OC)c1 [Compound 513]	96.6
CCc1ccc(S(=O)(=O)N[C@H](C)c2nnc(Oc3cccc(N4CCN(C)CC4)c3)n2CC)cc1 [Compound 515]	109
CCn1c(Oc2cccc(N3CCN(C)CC3)c2)nnc1[C@@H](C)NS(=O)(=O)c1ccc(F)cc1 [Compound 516]	107
CCn1c(Oc2cccc(N3CCN(C)CC3)c2)nnc1[C@@H](C)NS(=O)(=O)c1c(C)cc(C)cc1C [Compound 517]	69.6
CCn1c(Oc2cccc(N3CCN(C)CC3)c2)nnc1[C@@H](C)NS(=O)(=O)c1ccc(OC)cc1 [Compound 518]	111
CCn1c(Oc2cccc(N3CCN(C)CC3)c2)nnc1[C@@H](C)NS(=O)(=O)c1ccc(S(C)(=O)=O)cc1 [Compound 520]	69.9
CCn1c(Oc2cccc(N3CCN(C)CC3)c2)nnc1[C@@H](C)NS(=O)(=O)CCc1cccc2ccccc12 [Compound 523]	114
CCn1c(Oc2cccc(N3CCN(C)CC3)c2)nnc1[C@@H](C)NS(=O)(=O)c1c(F)c(F)c(F)c(F)c1F [Compound 524]	83
CCn1c(Oc2cccc(N3CCN(C)CC3)c2)nnc1[C@@H](C)NS(=O)(=O)c1ccc(I)cc1 [Compound 525]	111

Compound	inhibition at 10 µM [%]
CCn1c(Oc2cccc(N3CCN(C)CC3)c2)nnc1[C@@H](C)NS(=O)(=O)c1cc(Cl)c(Cl)cc1Cl [Compound 526]	112
CCn1c(Oc2cccc(N3CCN(C)CC3)c2)nnc1[C@@H](C)NS(=O)(=O)c1c(C(C)C)cc(C(C)C)cc1C(C)C [Compound 527]	52.1
CCn1c(Oc2cccc(N3CCN(C)CC3)c2)nnc1[C@@H](C)NS(=O)(=O)c1cccc(C(F)(F)F)c1 [Compound 530]	115
CCn1c(Oc2cccc(N3CCN(C)CC3)c2)nnc1[C@@H](C)NS(=O)(=O)c1ccc(OC(F)(F)F)cc1 [Compound 532]	99.2
CCn1c(Oc2cccc(N3CCN(C)CC3)c2)nnc1[C@@H](C)NS(=O)(=O)c1ccc2c(c1)CN(C(=O)C(F)(F)F)CC2 [Compound 536]	50.3
CCn1c(Oc2cccc(N3CCN(C)CC3)c2)nnc1[C@@H](C)NS(=O)(=O)c1ccc(-c2csnn2)s1 [Compound 538]	97.1
CCn1c(Oc2cccc(N3CCN(C)CC3)c2)nnc1[C@@H](C)NS(=O)(=O)c1c(C)nn(C)c1Cl [Compound 540]	64.3
CCn1c(Oc2cccc(N3CCN(C)CC3)c2)nnc1[C@@H](C)NS(=O)(=O)c1c(C)noc1C [Compound 541]	65.5
CCn1c(Oc2cccc(N3CCN(C)CC3)c2)nnc1[C@@H](C)NS(=O)(=O)c1c(Cl)ccc2nonc12 [Compound 542]	50.1
CCn1c(Oc2cccc(N3CCN(C)CC3)c2)nnc1[C@@H](C)NS(=O)(=O)c1ccc(C(=O)OC)n1C [Compound 543]	112
CCn1c(Oc2cccc(N3CCN(C)CC3)c2)nnc1[C@@H](C)NS(=O)(=O)c1c(C)nn(C)c1C [Compound 544]	53.9
CCCc1ccc(S(=O)(=O)N[C@H](C)c2nnc(Oc3cccc(N4CCN(C)CC4)c3)n2CC)cc1 [Compound 548]	96.7
CCn1c(Oc2cccc(N3CCN(C)CC3)c2)nnc1[C@@H](C)NS(=O)(=O)c1c(C)c(C)cc(C)c1C [Compound 549]	89.2
CCn1c(Oc2cccc(N3CCN(C)CC3)c2)nnc1[C@@H](C)NS(=O)(=O)c1c(C)cccc1Cl [Compound 551]	76.1
CCn1c(Oc2cccc(N3CCN(C)CC3)c2)nnc1[C@@H](C)NS(=O)(=O)c1cc(C(F)(F)F)cc(C(F)(F)F)c1 [Compound 553]	107
CCn1c(Oc2cccc(N3CCN(C)CC3)c2)nnc1[C@@H](C)NS(=O)(=O)c1cc(Cl)cc(Cl)c1 [Compound 554]	116

Continued, values first:

inhibition at 10 µM [%]	Compound
84	CCn1c(Oc2cccc(N3CCN(C)CC3)c2)nnc1[C@@H](C)NS(=O)(=O)c1ccccc1 [Compound 498]
109	CCn1c(Oc2cccc(N3CCN(C)CC3)c2)nnc1[C@@H](C)NS(=O)(=O)c1ccc(Br)cc1 [Compound 499]
61.7	CCn1c(Oc2cccc(N3CCN(C)CC3)c2)nnc1[C@@H](C)NS(=O)(=O)c1ccccc1Br [Compound 501]
116	CCn1c(Oc2cccc(N3CCN(C)CC3)c2)nnc1[C@@H](C)NS(=O)(=O)c1cccc(Br)c1 [Compound 503]
83.2	CCn1c(Oc2cccc(N3CCN(C)CC3)c2)nnc1[C@@H](C)NS(=O)(=O)c1ccccc1C#N [Compound 506]
98.6	CCn1c(Oc2cccc(N3CCN(C)CC3)c2)nnc1[C@@H](C)NS(=O)(=O)c1cc(Cl)ccc1Cl [Compound 511]
98.4	CCn1c(Oc2cccc(N3CCN(C)CC3)c2)nnc1[C@@H](C)NS(=O)(=O)c1cccc2ccccc12 [Compound 522]
106	CCn1c(Oc2cccc(N3CCN(C)CC3)c2)nnc1[C@@H](C)NS(=O)(=O)c1ccc(C)cc1 [Compound 528]
100	CCn1c(Oc2cccc(N3CCN(C)CC3)c2)nnc1[C@@H](C)NS(=O)(=O)c1ccccc1C [Compound 531]
101	CCn1c(Oc2cccc(N3CCN(C)CC3)c2)nnc1[C@@H](C)NS(=O)(=O)c1cccc(C)c1 [Compound 534]
96.7	CCn1c(Oc2cccc(N3CCN(C)CC3)c2)nnc1[C@@H](C)NS(=O)(=O)c1cc(C)ccc1C [Compound 537]
50.7	CCn1c(Oc2cccc(N3CCN(C)CC3)c2)nnc1[C@@H](C)NS(=O)(=O)c1ccccc1C(=O)OC [Compound 545]
55.8	CCn1c(Oc2cccc(N3CCN(C)CC3)c2)nnc1[C@@H](C)NS(=O)(=O)c1ccccc1C(F)(F)F [Compound 546]
104	CCn1c(Oc2cccc(N3CCN(C)CC3)c2)nnc1[C@@H](C)NS(=O)(=O)c1cccc(Cl)c1Cl [Compound 550]
67.2	CCn1c(Oc2cccc(N3CCN(C)CC3)c2)nnc1[C@@H](C)NS(=O)(=O)c1ccccc1Cl [Compound 552]
